Measured values as given in patent publication US5403932A, “Phosphoramidates useful as antitumor agents” (Research Corporation Technologies, Inc., priority 1994, dated 1995).
Like-named read-outs stand apart in the source and are kept apart here.

What was measured:
[1] = test system: HT29 human colon cancer cells; assay: Aerobic and hypoxic selectivity against human colon cancer HT29 cells, colony formation; assay type: cell-based; settings: 4 h
Description: HT29 human colon cancer cells were maintained in exponential growth in α-MEM medium supplemented with 10% fetal bovine serum and 25 mM HEPES buffer, and cultured at 37° C. and 3% CO2. For drug treatments, 1-2×10^6 cells in 10 ml of medium were transferred to glass reaction vials. For the hypoxic experiments, the medium was first gassed for 3 hr with 95% nitrogen/5% CO2 to achieve a partial pressure of oxygen <100 ppm. These cell suspensions were then treated with drug at different concentrations under either aerobic or hypoxic conditions for 4 hr in the reaction vials. The medium was removed, the cells were washed, and a colony formation assay was carried out as described above in Example 15. Colonies with […] 50 cells were counted 12-14 days after plating. The log of the surviving fraction was plotted against drug concentration, and from this plot the concentration required to reduce the colony number to 10% of control (LC90) was determined. The results of this test on representative compounds of the present invention are depicted in Table 4.

[2] = test system: P388/CP (cyclophosphamide resistant) murine leukemia cells; assay: Soft agar colony-forming assay, in vitro cytotoxicity against cyclophosphamide-resistant P388 murine leukemia; assay type: cell-based, mouse; settings: 1 h at 37°, 99% cell kill
Description: (§1) The In Vitro cytotoxic activity of representative compounds under hypoxic and aerobic conditions were evaluated as follows.
(§2) A soft agar colony-forming assay according to the procedure of Chu and Fischer, Biochem. Pharmacol., 17, 753-767 (1968) was used and modified where necessary. Cultured mouse L1210 and P388 sensitive cells were purchased from EG&G Mason Research Institute, Tumor Bank, Worchester, Ma. Cultured cyclophosphamide resistant L1210 and P388 cells were obtained from Dr. Robert Struck of Southern Research Institute, Birmingham, Ala. Typically, the desired cells (2-3×10^6 cells/ml) in exponential growth and suspended in 6.5 ml of Fischer's medium (Gibco Lab., Grand Island, N.Y.) were divided into six groups (1 control and 5 treated groups) containing an equal number of cells in 1 ml. These cells were then treated with varying doses of drug diluted with media to give a total volume of 10 ml, and incubated for one hour at 37° C. The cells were washed three times with 3 ml of supplemented Fischer's medium (containing 10% horse serum) by centrifuge (800×g), removal of media by suction, and resuspension of the pellet in media (5 ml). A 1-ml portion was used to determine the cell count with a Coulter counter. […] Colonies were counted after 10 days. […]

[3] = test system: P388/O (cyclophosphamide sensitive) murine leukemia cells; assay: Soft agar colony-forming assay, in vitro cytotoxicity against cyclophosphamide-sensitive P388 murine leukemia; assay type: cell-based, mouse; settings: 1 h at 37°, 99% cell kill
Description: as §1
(§3) A soft agar colony-forming assay according to the procedure of Chu and Fischer, Biochem. Pharmacol., 17, 753-767 (1968) was used and modified where necessary. Cultured mouse L1210 and P388 sensitive cells were purchased from EG&G Mason Research Institute, Tumor Bank, Worchester, Ma. Cultured cyclophosphamide resistant L1210 and P388 cells were obtained from Dr. Robert Struck of Southern Research Institute, Birmingham, Ala. Typically, the desired cells (2-3×10^6 cells/ml) in exponential growth and suspended in 6.5 ml of Fischer's medium (Gibco Lab., Grand Island, N.Y.) were divided into six groups (1 control and 5 treated groups) containing an equal number of cells in 1 ml. These cells were then treated with varying doses of drug diluted with media to give a total volume of 10 ml, and incubated for one hour at 37° C. The cells were washed three times with 3 ml of supplemented Fischer's medium (containing 10% horse serum) by centrifuge (800×g), removal of media by suction, and resuspension of the pellet in media (5 ml). A 1-ml portion was used to determine the cell count with a Coulter counter. From the remainder, a 5-ml suspension of cells was prepared at a density of 10^5 cells/ml, and between 10^2 and 10^5 cells were placed on soft agar and incubated at 37° C. Colonies were counted after 10 days. The log of the surviving fraction was plotted vs. drug concentration and from this plot the LC99 was obtained. (By definition, the LC99 value represents the concentration of drug necessary to effect a 99% cell kill.)

[4] = test system: L1210/O (cyclophosphamide sensitive) murine leukemia cells; assay: Soft agar colony-forming assay, in vitro cytotoxicity against cyclophosphamide-sensitive L1210 murine leukemia; assay type: cell-based, mouse; settings: 1 h at 37°, 99% cell kill
Description: as §1, §3

[5] = test system: L1210/CP (cyclophosphamide resistant) murine leukemia cells; assay: Soft agar colony-forming assay, in vitro cytotoxicity against cyclophosphamide-resistant L1210 murine leukemia; assay type: cell-based, mouse; settings: 1 h at 37°, 99% cell kill
Description: as §1, §2

B16 melanoma cells = assay: Cytotoxicity against B16 melanoma cells, colony formation; assay type: cell-based; settings: B16 mouse melanoma, 2 h treatment; read-out: Drug Concentration required to kill 90% of Clonogenic Tumor Cells In Vitro (LC90), B/16
Description: B16 melanoma cells in exponential growth (2-3×10^6 cells in 10 ml of serum-free MEM medium) were treated with drug for 2 hr. The cells were separated, washed, and resuspended in MEM medium supplemented with 10% fetal bovine serum. The cells were plated in 60-mm culture dishes at a density of 50-50,000 cells/plate (depending upon the drug concentration used) and then incubated for 8 days in a CO2 incubator at 37°. The colonies were fixed and stained with 0.5% crystal violet in ethanol and counted. The log of the surviving fraction was plotted against drug concentration, and from this plot the concentration required to reduce the colony number to 10% of control (LC90) was determined.

[6] = test system: KHT/iv cells (mouse KHT sarcoma); assay: Hypoxic cell selectivity using KHT/iv cells, clonogenic assay; assay type: cell-based; settings: 4 h at 37°; for LC99, Aerobic: aerobic (95:5 air:CO2); for LC99, Hypoxic: hypoxic (95:5 nitrogen:CO2)
Description: KHT/iv cells were adapted to cell culture from tile mouse KHT sarcoma by Dietmar Siemann, University of Rochester. Cells were maintained in Eagle's basal medium and 10% fetal calf serum for all experiments. Cells in exponential growth were trypsinized from monolayer cultures and separated from one another by agitation in a gas-tight syringe at a density of 1-2×10^7 cells/ml for 15 minutes at 37°. The cells were then resuspended in HEPES-buffered Eagle's medium contained in stirred gas-tight vials at a final density of 2×10^7 cells/ml; before cells or drugs were added, the vials were pre-equilibrated with humidified gas having tile composition 95:5 air:CO2 for aerobic treatment or 95:5 nitrogen:CO2 from hypoxic treatment. Oxygen tension in the hypoxic medium was approximately 100 ppm after tile equilibration period. Drug was dissolved a volume of ethanol that would give a final ethanol concentration of 1% in the medium; this concentration of ethanol had no effect on the plating efficiency of control cell preparations. Cells were incubated with drug under aerobic or hypoxic conditions at 37° for 4 hours. The cells were then removed from the vials, washed with drug-free medium, counted, and plated for cell survival using a standard clonogenic assay. Cell surviving fraction was plotted vs. drug concentration, and the LC99 values were obtained from the least squares equation.

[7] = Table 4, aerobic, read-out: Drug Concentration required to kill 90% of Clonogenic Tumor Cells In Vitro (LC90), HT29 Aerobic
[8] = Table 4, hypoxic (95% nitrogen/5% CO2), read-out: Drug Concentration required to kill 90% of Clonogenic Tumor Cells In Vitro (LC90), HT29 Hypoxic
[9] = Table 3, aerobic, read-out: Drug Concentration required to kill 90% of Clonogenic Tumor Cells In Vitro (LC90), HT29 Aerobic
[10] = Table 3, hypoxic (95% nitrogen/5% CO2), read-out: Drug Concentration required to kill 90% of Clonogenic Tumor Cells In Vitro (LC90), HT29 Hypoxic

Row | Structure (SMILES) | IC90 (B16 melanoma cells) | IC90 [1, 9] | IC90 [1, 10] | other results
1 | CC(OP(=O)(N(CCCl)CCCl)N(CCCl)CCCl)c1ccc([N+](=O)[O-])cc1 (centres unmarked) |  |  |  | IC90 [1, 7]: > 500 µM; IC90 [1, 8]: 45 µM
2 | COC(=O)CC(OP(N)(=O)N(CCCl)CCCl)c1ccc([N+](=O)[O-])cc1 (centres unmarked) [4-NO2 Ph, methyl 3-(4-nitrophenyl)-3-(N,N-bis-(2-chloroethyl)phosphorodiamido) propionate] |  |  |  | LC99 [2]: 77; LC99 [3]: 82; LC99 [4]: 138; LC99 [5]: 152
3 | CCOC(=O)CC(OP(=O)(N(CCCl)CCCl)N(CCCl)CCCl)c1ccc([N+](=O)[O-])s1 (centres unmarked) [Compound 15, O-(1-(5-nitro-2-thiophene)-2-carbethoxyethyl)-N,N,N'N'-tetrakis(2-chloroethyl)phosphoramide] | 3 µM |  |  | 
4 | CCOC(=O)CC(OP(N)(=O)N(CCCl)CCCl)c1cc(CN(C)C)cc2cc([N+](=O)[O-])cnc12 (centres unmarked) |  |  |  | IC90 [1, 7]: 700 µM; IC90 [1, 8]: 95 µM
5 | CN(C)CCOC(=O)CC(OP(=O)(N(CCCl)CCCl)N(CCCl)CCCl)c1ccc([N+](=O)[O-])cc1 (centres unmarked) [Compound 13, O-(1-(4-nitrophenyl)-2-(2-N,N-dimethylaminoethoxycarbonyl)ethyl)-N,N,N'N'-tetrakis-(2-chloroethyl)phosphoramide] | < 2 µM | 60 µM | 35 µM | 
6 | COC(=O)CC(OP(N)(=O)N(CCCl)CCCl)c1ccccc1 (centres unmarked) [Ph, reference compound] |  |  |  | LC99 [3]: 300; LC99 [4]: 350
7 | NP(=O)(OCc1ccc([N+](=O)[O-])cc1)N(CCCl)CCCl (centres unmarked) [Compound 4-nitro] |  |  |  | LC99, Aerobic [6]: 320; LC99, Hypoxic [6]: 120
8 | CCOC(=O)CC(OP(=O)(N(CCCl)CCCl)N(CCCl)CCCl)c1ccc([N+](=O)[O-])cc1 (centres unmarked) [Compound 12, O-(1-(4-nitrophenyl)-2-carbethoxyethyl)-N,N,N',N'-tetrakis(2-chloroethyl)phosphoramide] | > 100 µM | 80 µM | 12 µM | 
9 | NP(=O)(OCc1ccccc1[N+](=O)[O-])N(CCCl)CCCl (centres unmarked) [Compound 2-nitro] |  |  |  | LC99, Aerobic [6]: 700; LC99, Hypoxic [6]: 230
10 | CCOC(=O)CC(OP(=O)(N(CCCl)CCCl)N(CCCl)CCCl)c1cc([N+](=O)[O-])ccn1 (centres unmarked) [Compound 17, O-(1-(4-nitro-2-pyridyl)-2-carbethoxyethyl)-N,N,N',N'-tetrakis(2-Chloroethyl)phosphoramide] | 50 µM | 80 µM | 35 µM | 
11 | COC(=O)CC(OP(N)(=O)N(CCCl)CCCl)c1ccccc1[N+](=O)[O-] (centres unmarked) [2-NO2 Ph, methyl 3-(2-nitrophenyl)-3-(N,N-bis(2-chloroethyl)phosphorodiamido)propionate] |  |  |  | LC99 [3]: 134; LC99 [4]: 172
12 | CN(C)CCOC(=O)CC(OP(=O)(N(CCCl)CCCl)N(CCCl)CCCl)c1ccc([N+](=O)[O-])s1 (centres unmarked) [Compound 14, O-(1-(5-nitro-2-thiophene)-2-(2-N,N-dimethylaminoethoxycarbonyl)ethyl)-N,N,N'N'-tetrakis-(2-chloroethyl)-phosphoramide] | 2.8 µM | 7.5 µM | 3 µM | 
13 | CCOC(=O)CC(OP(=O)(N(CCCl)CCCl)N(CCCl)CCCl)c1ccc([N+](=O)[O-])c(C)n1 (centres unmarked) [Compound 16, O-(1(6-methyl-5-nitro-2-pyridyl)-2-carbethoxyethyl)-N,N,N'N'-tetrakis(2-chloroethyl)phosphoramide] | 150 µM | 110 µM | 25 µM | 
